# Assays:
# Cell membrane [1] = test: Induction of mitochondrial membrane depolarization in human K562 cells incubated for 48 hrs by JC-1 staining based flow cytometry analysis; details: Mitochondria, dose […]
# K562 [2] = test: Induction of cell cycle arrest in human K562 cells assessed as accumulation of cells at G1 phase at 400 nM incubated for 48 hrs by PI staining based flow cytometry analysis (reference value: 68.84%); assay type: functional
# Cell membrane [3] = test: Induction of mitochondrial membrane depolarization in human K562 cells assessed as lower right phase cells at […] incubated for 48 hrs by JC-1 staining based flow cytometry analysis; details: Mitochondria
# K562 [4] = test: Induction of apoptosis in human K562 cells assessed as early apoptotic cells at 200 nM incubated for 48 hrs by Annexin-V and PI staining based flow cytometry analysis (reference value: 1.98%); assay type: functional
# K562 [5] = test: Induction of apoptosis in human K562 cells assessed as necrotic cells at 400 nM incubated for 48 hrs by Annexin-V and PI staining based flow cytometry analysis (reference value: 1.72%); assay type: functional
# K562 [6] = test: Induction of cell cycle arrest in human K562 cells assessed as accumulation of cells at G1 phase at 200 nM incubated for 48 hrs by PI staining based flow cytometry analysis (reference value: 68.84%); assay type: functional
# K562 [7] = test: Induction of cell cycle arrest in human K562 cells assessed as accumulation of cells at G2 phase at 400 nM incubated for 48 hrs by PI staining based flow cytometry analysis (reference value: 12.31%); assay type: functional
# K562 [8] = test: Induction of cell cycle arrest in human K562 cells assessed as downregulation of cdc-2 expression incubated for 48 hrs by Western blot analysis; assay type: functional, cell-based; details: dose 100-400 nM
# K562 [9] = test: Induction of apoptosis in human K562 cells assessed as viable cells at 400 nM incubated for 48 hrs by Annexin-V and PI staining based flow cytometry analysis (reference value: 93.87%); assay type: functional; details: read-out: Activity
# SMMC-7721 = test: Antiproliferative activity against human SMMC-7721 cells assessed as reduction in cell growth after 72 hrs by MTT assay; assay type: functional, cell-based; details: SMMC-7721, 72 h
# K562 [10] = test: Induction of apoptosis in human K562 cells assessed as early apoptotic cells at 100 nM incubated for 48 hrs by Annexin-V and PI staining based flow cytometry analysis (reference value: 1.98%); assay type: functional
# K562 [11] = test: Induction of apoptosis in human K562 cells assessed as viable cells at 200 nM incubated for 48 hrs by Annexin-V and PI staining based flow cytometry analysis (reference value: 93.87%); assay type: functional; details: read-out: Activity
# K562 [12] = test: Induction of ROS generation in human K562 cells at 400 nM incubated for 48 hrs by DCFH-DA staining based flow cytometry analysis (reference value: 4.82%); assay type: functional
# SW480 = test: Antiproliferative activity against human SW480 cells assessed as reduction in cell growth after 72 hrs by MTT assay; assay type: functional, cell-based; details: SW480, 72 h
# K562 [13] = test: Induction of apoptosis in human K562 cells assessed as late apoptotic cells at 400 nM incubated for 48 hrs by Annexin-V and PI staining based flow cytometry analysis (reference value: 2.42%); assay type: functional
# K562 [14] = test: Potency index, ratio of oridonin IC50 to compound IC50 for antiproliferative activity against human K562 cells after 72 hrs by MTT assay; assay type: functional
# [15] = Selectivity index, ratio of IC50 for human L02 cells to IC50 for human SMMC-7721 cells; assay type: toxicity; details: L02 cells versus SMMC-7721 cells, read-out: Ratio IC50
# K562 [16] = test: Induction of apoptosis in human K562 cells assessed as late apoptotic cells at 100 nM incubated for 48 hrs by Annexin-V and PI staining based flow cytometry analysis (reference value: 2.42%); assay type: functional
# K562 [17] = test: Induction of apoptosis in human K562 cells assessed as necrotic cells at 100 nM incubated for 48 hrs by Annexin-V and PI staining based flow cytometry analysis (reference value: 1.72%); assay type: functional
# K562 [18] = test: Antiproliferative activity against human K562 cells assessed as reduction in cell growth after 72 hrs by MTT assay; assay type: functional, cell-based; details: K562, 72 h
# K562 [19] = test: Induction of cell cycle arrest in human K562 cells assessed as downregulation of cyclin-B1 expression incubated for 48 hrs by Western blot analysis; assay type: functional, cell-based; details: dose 100-400 nM
# K562 [20] = test: Induction of apoptosis in human K562 cells assessed as late apoptotic cells at 200 nM incubated for 48 hrs by Annexin-V and PI staining based flow cytometry analysis (reference value: 2.42%); assay type: functional
# K562 [21] = test: Induction of cell cycle arrest in human K562 cells assessed as accumulation of cells at S phase at 100 nM incubated for 48 hrs by PI staining based flow cytometry analysis (reference value: 18.85%); assay type: functional
# K562 [22] = test: Induction of cell cycle arrest in human K562 cells assessed as accumulation of cells at G2 phase at 200 nM incubated for 48 hrs by PI staining based flow cytometry analysis (reference value: 12.31%); assay type: functional
# K562 [23] = test: Induction of cell cycle arrest in human K562 cells assessed as accumulation of cells at G2 phase at 100 nM incubated for 48 hrs by PI staining based flow cytometry analysis (reference value: 12.31%); assay type: functional
# K562 [24] = test: Induction of apoptosis in human K562 cells assessed as early apoptotic cells at 400 nM incubated for 48 hrs by Annexin-V and PI staining based flow cytometry analysis (reference value: 1.98%); assay type: functional
# K562 [25] = test: Induction of apoptosis in human K562 cells assessed as viable cells at 100 nM incubated for 48 hrs by Annexin-V and PI staining based flow cytometry analysis (reference value: 93.87%); assay type: functional; details: read-out: Activity
# MDA-MB-231 = test: Antiproliferative activity against human MDA-MB-231 cells assessed as reduction in cell growth after 72 hrs by MTT assay; assay type: functional, cell-based; details: MDA-MB-231, 72 h
# K562 [26] = test: Induction of cell cycle arrest in human K562 cells assessed as accumulation of cells at S phase at 400 nM incubated for 48 hrs by PI staining based flow cytometry analysis (reference value: 18.85%); assay type: functional
# K562 [27] = test: Induction of cell cycle arrest in human K562 cells assessed as accumulation of cells at S phase at 200 nM incubated for 48 hrs by PI staining based flow cytometry analysis (reference value: 18.85%); assay type: functional
# [28] = Cytotoxicity against human L02 cells incubated for 72 hrs by MTT assay; assay type: toxicity, cell-based
# K562 [29] = test: Induction of apoptosis in human K562 cells assessed as necrotic cells at 200 nM incubated for 48 hrs by Annexin-V and PI staining based flow cytometry analysis (reference value: 1.72%); assay type: functional
# K562 [30] = test: Induction of cell cycle arrest in human K562 cells assessed as downregulation of cdc-25c expression incubated for 48 hrs by Western blot analysis; assay type: functional, cell-based; details: dose 100-400 nM
# K562 [31] = test: Induction of cell cycle arrest in human K562 cells assessed as accumulation of cells at G1 phase at 100 nM incubated for 48 hrs by PI staining based flow cytometry analysis (reference value: 68.84%); assay type: functional
# K562 [32] = test: Induction of ROS generation in human K562 cells incubated for 48 hrs by DCFH-DA staining based flow cytometry analysis; assay type: functional, cell-based; details: dose […]
compound,measurement,setting,value
C=C1C(=O)[C@@]23C(=O)OC[C@]4(C=CCC(C)(C)[C@H]4C=O)[C@@H]2CC[C@@H]1[C@H]3OC(=O)/C=C/c1cccnc1,Activity,Cell membrane [1],Dose-Dependent Effect
same,Activity,K562 [2],55.2%
same,Activity,Cell membrane [3],28.4%
same,Activity,K562 [4],7.6%
same,Activity,K562 [5],6.37%
same,Activity,K562 [6],61.3%
same,Activity,K562 [7],20.53%
same,Activity,K562 [8],Dose-Dependent Effect
same,viability at 0.4 µM,K562 [9],68.7%
same,IC50,SMMC-7721,560 nM
same,Activity,K562 [10],5.01%
same,viability at 0.2 µM,K562 [11],80.9%
same,Activity,K562 [12],27.83%
same,IC50,SW480,480 nM
same,Activity,K562 [13],15.5%
same,Ratio IC50,K562 [14],10
same,selectivity ratio,[15],7.64
same,Activity,K562 [16],5.59%
same,Activity,K562 [17],3.37%
same,IC50,K562 [18],400 nM
same,Activity,K562 [19],Dose-Dependent Effect
same,Activity,K562 [20],7.23%
same,Activity,K562 [21],20.6%
same,Activity,K562 [22],13.9%
same,Activity,K562 [23],15.07%
same,Activity,K562 [24],9.41%
same,viability at 0.1 µM,K562 [25],86%
same,IC50,MDA-MB-231,980 nM
same,Activity,K562 [26],24.28%
same,Activity,K562 [27],24.8%
same,IC50 at 72 h,[28],4280 nM
same,Activity,K562 [29],4.23%
same,Activity,K562 [30],Dose-Dependent Effect
same,Activity,K562 [31],64.33%
same,Activity,K562 [32],Dose-Dependent Effect
